Results: patent US5310938A, “Substituted arylpyrrole compounds” (American Cyanamid Company, priority 1993, dated 1994)

test system: Caenorhabditis elegans; experiment: Nematicidal activity against C. elegans (motility rating); type: in vivo, C. elegans (Bristol strain); set-up: key: 9: complete kill; 8: no motility; 7: markedly reduced motility in approximately 95% of worms; 6: reduced motility; 5: slightly reduced motility; 0: normal motility, same as controls; conditions: read at 4 and 24 hours post-immersion
Description: Cultures of C. elegans (Bristol strain from J. Lewis) are maintained on E. coli lawns on NG Agar Plates at 20° C. New cultures are established weekly.
Nematodes for testing are washed from 4-5 day old cultures using Fresh Ascaris Ringers Solution (FARS). The worms are further washed with FARS,-containing gentamycin, to reduce bacterial contamination and centrifuged to separate worms from wash solution. This procedure is repeated three times. The washed worms are then added to C. brigassae Maintenance Medium (CbMM), from GIBCOa to which is added gentamycin (600 units/ml) and mycostatin (0.5 mg/ml).
Compounds are dissolved in acetone and made up to volume with equal parts of water. The final test concentration of each compound in the mixture is 150 ppm. The test material is micropipetted (25 ul) into a single well of a 96-well sterile tissue culture plate (COSTAR)^b and the solvent allowed to evaporate. These "treated" plates are used immediately or stored in a refrigerator without apparent adverse effects on the compounds.
A freshly prepared volume ([…]) of C. elegans in CbMM is micropipetted into each treated well and several control wells per plate. Culture plates are incubated at 20° C.
Observations for efficacy are made under a dissecting microscope at 4 and 24 hours post-immersion. Immediately prior to reading the plate, it is gently tapped to stimulate the movement of the worms. Activity is judged based on the drug effects on motility of the adults and larvae. […] Other factors indicating activity are easily noted such as death, rigor mortis, contraction, coiling, paralysis, abnormal twitching, reduced worm population in 48 hours and other deviation from normal behavior.
Day 0 Inoculate E. Coli-NG Agar Dish With 30-40
Day 4 Harvest New C. Elegans Population
Add C. Elegans (25-100 µL) To "Medicated"
Observe for Activity at 4 hours Post-
Day 5 Observe For Activity

Compound | Rating Against C. Elegans 150 ppm
N#Cc1[nH]c(-c2ccc(Cl)c(Cl)c2)c([N+](=O)[O-])c1Br [3-Bromo-5-(3,4-dichlorophenyl)-4-nitropyrrole-2-carbonitrile] | 9
N#Cc1c(-c2ccc([N+](=O)[O-])cc2)[nH]c(Cl)c1Cl [4,5-Dichloro-2-(P-nitrophenyl)-pyrrole-3-carbonitrile] | 9
N#Cc1c(-c2ccc(C(F)(F)F)cc2)[nH]c(Br)c1Br [4,5-Dibromo-2-(α,α,α-trifluoro-p-tolyl)pyrrole-3-carbonitrile] | 9
N#Cc1c(-c2ccccc2Cl)[nH]c(Br)c1Br [4,5-Dibromo-2-(0-chlorophenyl)-pyrrole-3-carbonitrile] | 9
O=[N+]([O-])c1c(-c2ccc(Cl)c(Cl)c2)[nH]c(Cl)c1Cl [2,3-Dichloro-5-(3,4-dichlorophenyl)-4-nitropyrrole] | 9
N#Cc1c(-c2cccc([N+](=O)[O-])c2)[nH]c(C(F)(F)F)c1Br [4-Bromo-2-(m-nitrophenyl)-5-(trifluoromethyl)pyrrole-3-carbonitrile] | 9
N#Cc1c(Br)[nH]c(C(F)(F)F)c1-c1ccccc1 [2-Bromo-4-phenyl-5-(trifluoromethyl)pyrrole-3-carbonitrile] | 9
N#Cc1c(Br)[nH]c(C(F)(F)F)c1-c1ccc(Cl)cc1 [2-Bromo-4-(P-chlorophenyl)-5-(trifluoromethyl)pyrrole-3-carbonitrile] | 9
CN(C)CCn1c(Cl)c(Cl)c(C#N)c1-c1ccc(Cl)c(Cl)c1 [4,5-Dichloro-2-(3,4-dichlorophenyl)-1-[2-(dimethylamino)ethyl]pyrrole-3-carbonitrile] | 9
N#Cc1c(-c2ccc(Cl)c(Cl)c2)[nH]c([N+](=O)[O-])c1Br [4-Bromo-2-(3,4-dichlorophenyl-5-nitropyrrole-3-carbonitrile] | 9
O=[N+]([O-])c1c[nH]cc1-c1ccccc1 [3-Nitro-4-phenylpyrrole] | 9
N#Cc1ccc(-c2[nH]c(Br)c(Br)c2C#N)cc1 [4,5-Dibromo-2-(P-cyanophenyl)-pyrrole-3-carbonitrile] | 9
N#Cc1c[nH]c(C(F)(F)F)c1-c1ccccc1 [4-Phenyl-5-(trifluoromethyl)pyrrole-3-carbonitrile] | 9
O=[N+]([O-])c1c[nH]cc1-c1ccc(Cl)cc1 [3-(P-chlorophenyl)-4-nitro-pyrrole] | 9
N#Cc1[nH]c(Br)c(C#N)c1-c1ccc(Cl)cc1 [5-Bromo-3-(P-chlorophenyl)-pyrrole-2,4-dicarbonitrile] | 9
N#Cc1c(-c2ccc(C(F)(F)F)cc2)[nH]c(Cl)c1Cl [4,5-Dichloro-2-(α,α,α-trifluoro-P-tolylpyrrole-3-carbonitrile] | 9
N#Cc1c(-c2ccc(Cl)c(Cl)c2)[nH]c(C(F)(F)F)c1Br [4-Bromo-2-(3,4-dichlorophenyl)-5-(trifluoromethyl)pyrrole-3-carbonitrile] | 9
COCCn1c(Cl)c(Cl)c(C#N)c1-c1ccc(C(F)(F)F)cc1 [4,5-Dichloro-1-(methoxyethyl)-2-(α,α,α-trifluoro-P-tolyl)pyrrole-3-carbonitrile] | 9
N#CCn1c(-c2ccc(Cl)cc2)c(C#N)c(Br)c1C(F)(F)F [3-Bromo-5-(P-chlorophenyl)-4-cyano-2-(trifluoromethyl)-pyrrole-1-acetonitrile] | 9
COCn1c(-c2ccc(Cl)cc2)c(C#N)c(Br)c1C(F)(F)F [4-Bromo-2-(P-chlorophenyl)-1-(1-methoxymethyl)-5-(trifluoromethyl)pyrrole-3-carbonitrile] | 9
O=[N+]([O-])c1c(-c2ccc(C(F)(F)F)cc2)[nH]c(Cl)c1Cl [2,3-Dichloro-4-nitro-5-(α,α,α-Trifluoro-p-tolylpyrrole] | 9
N#Cc1cc([N+](=O)[O-])[nH]c1-c1ccc(Cl)cc1 [2-(p-chlorophenyl)-5-nitropyrrole-3-carbonitrile] | 9
N#Cc1c(-c2ccc(C(F)(F)F)cc2)[nH]c([N+](=O)[O-])c1Br [4-Bromo-5-nitro-2-(α,α,α-trifluoro-P-tolyl)pyrrole-3-carbonitrile] | 9
C=CCn1c(Cl)c(Cl)c(C#N)c1-c1ccc(Cl)c(Cl)c1 [1-Alkyl-4,5-dichloro-2-(3,4-dichlorophenyl)pyrrole-3-carbonitrile] | 9

Compound | Rating Against C. Elegans 150 ppm
CCOCn1c(-c2ccc(C(F)(F)F)cc2)c(C#N)c(Br)c1C(F)(F)F [4-Bromo-1-(ethoxymethyl)-5-(trifluoromethyl)-2-(α,α,α-trifluoro-P-tolyl)-pyrrole-3-carbonitrile] | 9
N#Cc1c(Br)c(C#N)n(Cc2ccccc2)c1-c1ccc(Cl)cc1 [1-Benzyl-3-bromo-5-(P-chlorophenyl)pyrrole-2,4-dicarbonitrile] | 9
N#Cc1ccc(-c2[nH]c(Cl)c(Cl)c2C#N)cc1 [4,5-Dichloro-2-(P-cyanophenyl)-pyrrole-3-carbonitrile] | 9
N#Cc1[nH]ccc1-c1ccc(Cl)cc1 [3-(P-chlorophenyl)pyrrole-2-carbonitrile, 3-(p-chlorophenyl)-pyrrole-2-carbonitrile] | 9
N#Cc1c(-c2ccc(Cl)cc2Cl)[nH]c(C(F)(F)F)c1Br [4-Bromo-2-(2,4-dichlorophenyl)-5-(trifluoromethyl)pyrrole-3-carbonitrile] | 9
O=[N+]([O-])c1c(Cl)[nH]c(Cl)c1-c1ccc(Cl)c(Cl)c1 [2,5-Dichloro-3-(3,4-dichlorophenyl)-4-nitropyrrole] | 9
N#Cc1c[nH]c(-c2ccc(C(F)(F)F)cc2)c1 [5-(α,α,α-trifluoro-tolyl)-pyrrole-3-carbonitrile] | 9
4,5-Dichloro-1-(hydromethyl)-2-(α,α,α-trifluoro-P-tolyl) | 9
CSCCn1c(Cl)c(Cl)c(C#N)c1-c1ccc(Cl)c(Cl)c1 [4,5-Dichloro-2-(3,4-dichlorophenyl)-1[2-(methylthio)ethyl]pyrrole-3-carbonitrile] | 9
N#Cc1[nH]c(-c2ccc(Cl)c(Cl)c2)c(Br)c1Br [3,4-dibromo-5-(3,4-dichlorophenyl)pyrrole-2-carbonitrile] | 9
N#Cc1c(-c2ccc(Cl)cc2)[nH]c(C(F)(F)F)c1C(F)(F)F [2-(P-chlorophenyl)-4,5-bis(trifluoromethyl)pyrrole-3-carbonitrile] | 9
O=[N+]([O-])c1cc([N+](=O)[O-])c(-c2ccc(Br)cc2)[nH]1 [2-(P-bromophenyl)-3,5-dimitropyrrole] | 9
O=[N+]([O-])c1c(-c2ccc(Br)cc2)[nH]c(Cl)c1Cl [2-(P-bromophenyl)-4,5-dichloro-3-nitropyrrole] | 9
N#Cc1c(Br)c(Br)n(Cc2ccccc2)c1-c1ccc(C(F)(F)F)cc1 [1-Benzyl-4,5-dibromo-2-(α,α,α-trifluoro-p-tolyl)pyrrole-3-carbonitrile] | 9
N#Cc1cc([N+](=O)[O-])c(-c2ccc(Cl)c(Cl)c2)[nH]1 [5(3,4-Dichlorophenyl)-4-nitropyrrole-2-carbonitrile] | 9
N#Cc1[nH]c(-c2ccc(OC(F)(F)F)cc2)c(C#N)c1Br [3-Bromo-5-[P-(trifluoromethoxy)phenyl]-pyrrole-2-4-dicarbonitrile] | 9
FC(F)(F)c1[nH]ccc1-c1ccc(Cl)cc1 [3-(P-chlorophenyl)-2-(trifluoromethyl)pyrrole] | 9
N#Cc1c(-c2ccc([N+](=O)[O-])cc2)[nH]c(Br)c1Br [4,5-Dibromo-2-(P-nitrophenyl)-pyrrole-3-carbonitrile] | 9
CS(=O)(=O)c1ccc(-c2[nH]c(Br)c(Br)c2C#N)cc1 [4,5-Dibromo-2-[P-(methylsulfonyl)phenyl]-pyrrole-3-carbonitrile] | 9
N#Cc1c(-c2ccc(Cl)cc2)[nH]c(C(F)(F)F)c1Br [4-Bromo-2-(p-chlorophenyl)-5-(trifluoromethyl)pyrrole-3-carbonitrile] | 9
N#Cc1c(Br)[nH]c(-c2ccc(C(F)(F)F)cc2)c1Br [2,4-Dibromo-5-(α,α,α-trifluoro-P-tolyl)pyrrole-3-carbonitrile] | 9
N#Cc1cc(C#N)c(-c2ccc(Cl)c(Cl)c2)[nH]1 [5-(3,4-Dichlorophenyl)-pyrrole-3-dicarbonitrile] | 9
CCOCn1c(-c2ccc(Cl)cc2Cl)c(C#N)c(Br)c1C(F)(F)F [4-Bromo-2-(2,4-Dichlorophenyl)-1-(ethoxymethyl)-5-(trifluoromethyl)pyrrole-3-carbonitrile] | 9
